This is an account of results in patent publication US4098823A, “Monospiroalkyl derivatives of prostaglandins” (Miles Laboratories, Inc., priority 1977, dated 1978).

Entries after “also recorded” stand apart in the source; their conditions may differ.

For assay [1], the system named is smooth muscle of the vas deferens. The note with it: mammalian male reproductive system; cited from earlier work.
For assay [2], the system named is adrenergic nerve endings. The note with it: guinea pig; cited from earlier work.
The test system of assay [3] is steroidogenesis in the adrenal glands. The note with it: hypophysectomized rats; cited from earlier work.
In assay [4] the test system is Human Platelet Aggregation. The note with it: in vitro; cited from earlier work.
The subject of assay [5] is female reproductive system. The note with it: in vivo; cited from earlier work.
Assay [6] deals with motor pathways in the central nervous system. The note with it: cited from earlier work.
Assay [7] concerns Guinea Pig Trachea. Description: Effects on the Guinea Pig Trachea in Vitro. The assay is classed as cell-based. The note with it: 0.01 to 10.0 mcg/ml, versus PGE1 0.1 mcg/ml, R = relaxation, C = contraction. As for the experimental part: A male guinea pig weighing 200-500 g was killed by a blow on the head. A 20 mm length of the trachea was dissected from the animal, transferred to a petri dish containing Krebs' solution (aerated with 95% O2 and 5% CO2 at 37° C), and cut longitudinally opposite the tracheal muscle. The tissue was then cut transversely three quarters of the distance across, a second cut in the opposite direction (again three quarters of the distance across the tissue) was made and the procedure was continued for the whole tissue. The ends of the trachea were pulled to form a zig-zag shaped strip. The tracheal strip used in the experiment was approximately 30 mm when extended under 0.25-0.5 g load in the tissue bath. Cotton thread was tied to one end of the tissue, and linen thread to the other. It was attached via the linen thread to a glass hook in a 5 ml isolated tissue bath containing Krebs' solution (37° C, aerated with a mixture of 95 % O2 and 5% CO2). […]
A test compound was then added to the same two strips at bath concentrations of 0.01, 0.1, 1.0, and 10.0 mcg/ml and the effects of the compound were recorded. […] The mean of the effects of the test compound on the two strips was then calculated for each concentration, and, based on the resulting values, an activity value was assigned as follows: […]

Assay [8] concerns rabbit aortic strip. In words: Cascade Assay, aorta (smooth muscle stimulant effect). The class given is cell-based. The note with it: superfused, 50% of maximum (PGA2). The method, boiled down:
(§1)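 Rabbit aortic strip (4 g tension), rat stomach fundus, rat colon and chick rectum (1 g) in cascade, superfused at 10 ml/min with 37° C Krebs containing cholinergic, adrenergic, serotonin and histamine blockers. Doses of 0.001–100,000 ng dripped on at 10–20 min intervals; maximal tension rise gave graphical ED50 per tissue.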

Assay [9] relates to rat stomach fundus. Description: Cascade Assay, stomach (smooth muscle stimulant effect). The assay is classed as cell-based. The note with it: superfused, 50% of maximum (PGE1). In a few lines: as §1
The test system of assay [10] is Blood Pressure and Heart Rate. In words: Effects on Blood Pressure and Heart Rate in the Anesthetized Cat. The assay is classed as in vivo. The note with it: intravenous, 0.01 to 10.0 mcg/kg, scored only on hypotension. As for the experimental part: The acute effects of test compounds on blood pressure and heart rate were determined in cats of either sex anesthetized with a mixture of pentobarbital sodium (35 mg/kg, i.v.) and barbital sodium (100 mg/kg, i.v.). Cannulas were placed in the trachea to allow adequate spontaneous ventilation, in a femoral artery for blood pressure recording with a strain gage transducer, and in a saphenous vein for drug administration. Heart rate was recorded by means of a cardiotachometer driven by the R wave of the electrocardiogram. After a period of 10 minutes of stable recordings of blood pressure and heart rate, the test compound was administered intravenously at doses increasing from 0.01 to 10.0 mcg/kg, spaced one log and injected at 10 minutes intervals. All doses were injected in a volume of 0.1 ml/kg. Modifications of blood pressure and heart rate induced by the test compound were expressed both in absolute units (mmHg and beats/minutes) and as percent of values recorded immediately before administration of each dose. Biphasic responses were tabulated in the order in which they occur. The direction of the observed changes was also noted (+ for increases and - for decreases).
Activity of compounds in this test was judged only on the basis of the degree of hypotension observed. Thus, the ED50 mmHg (dose decreasing blood pressure by 50 mmHg) was calculated graphically and the compound scored according to the following scale: […]

Assay [11] concerns chick rectum. In words: Cascade Assay, rectum (smooth muscle stimulant effect). The assay is classed as cell-based. The note with it: superfused, 50% of maximum (PGE1). The method, boiled down:
as §1

Assay [12] concerns rat colon. In words: Cascade Assay, colon (smooth muscle stimulant effect). The class given is cell-based. The note with it: superfused, 50% of maximum (PGF2α). The method, boiled down: as §1
Assay [13] relates to Rat Uterus. In words: Effects on the Rat Uterus in Vitro. The assay is classed as cell-based. The note with it: Rattus norvegicus; in vitro, 29° C; response 50% that of carbachol; read-out: Test F Rat Uterus, Activity Value (ED50). In a few lines: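 Uterine segments came from rats (140–160 g) given 1 mg/kg diethylstilbestrol s.c. 18 h earlier. Tissue was held isometrically at 1 g tension in de Jalon solution at 29 °C, gassed with 95% O2/5% CO2. Compound was tested at 0.001–10 mcg/ml in log steps, every 10 min with washes, and ED50 was derived graphically as 50% of the second carbachol (1 mcg/ml) response.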

Assay [14] deals with Gastric Secretion. In words: Effects on Gastric Secretion in the Rat. The class given is in vivo. The note with it: pylorus-ligated rat, subcutaneous, 2 x 1.5 mg/kg (total 3.0 mg/kg), 4 hours. In a few lines: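 Rats (150-200 g, groups of six) fasted 48 h, pylorus ligated under ether. Compounds given s.c. in phosphate buffer pH 7.38 at 1.5 mg/kg immediately post-surgery and 2 h later (total 3.0 mg/kg). At 4 h, gastric volume and total acid (titration with 0.1 N NaOH, mEq) compared with vehicle controls by t-test.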

Assay [15] concerns Human Platelet Aggregation. In words: Inhibition of Human Platelet Aggregation. The assay is classed as cell-based. The note with it: in vitro. As to the method:
The ability of test compounds to inhibit platelet aggregation was determined by a modification of the turbidometric technique of Born (Nature, 194:927 [1962]). Blood was collected from human volunteers who had not ingested aspirin or aspirin-containing products within the preceding two weeks in heparinized containers and was allowed to settle for one (1) hour. The platelet rich plasma (prp) supernates were collected and cooled. Siliconized glassware was used throughout.
In a representative assay 1.9 ml of PRP and 0.2 ml of test compound at the appropriate concentrations (0.001 to 100 mcgm), or 0.2 ml of distilled water (control procedure) were placed in sample cuvettes. The cuvettes were placed in a 37° C incubation block for 15 minutes, and then in a spectrophotometer linked to a strip chart recorder. After 30-60 seconds, 0.2 ml of a solution, prepared by diluting a calf-skin collagen solution 1:9 with Tyrodes' Solution, was added to each cuvette. Platelet aggregation was evidenced by a decrease in optical density.
An ED50 value was then determined graphically.

In the case of `CCCCC[C@H](O)/C=C/[C@H]1[C@H](O)CC(=O)[C@@H]1CCCCCCC(=O)O` [PGE1, prostaglandin E1], the “contraction of smooth muscle of the vas deferens” value in assay [1] is “contracts the smooth muscle of the vas deferens”. Moreover, the “transmitter release from adrenergic nerve endings” value in assay [2] is recorded as “inhibit transmitter release from adrenergic nerve endings”. The “steroidogenesis in the adrenal glands” value in assay [3] is on record as “stimulate steroidogenesis in the adrenal glands”. Further, in assay [4], the “inhibition of aggregation of human platelets, in words (natural prostaglandin)” value is listed as “displays a similar activity”.
Regarding `CCCCC[C@H](O)/C=C/[C@H]1[C@H](O)CC(=O)[C@@H]1C/C=C\CCCC(=O)O` [PGE2], the “transmitter release from adrenergic nerve endings” value in [2] is on record as “inhibit transmitter release from adrenergic nerve endings”. In [3], the “steroidogenesis in the adrenal glands” value is given as “stimulate steroidogenesis in the adrenal glands”. The “effect in the female reproductive system (fertility, labor, abortion)” value in assay [5] is on record as “potent oxytocic effects in inducing labor”.
Turning to `CCCCC[C@H](O)/C=C/[C@@H]1[C@@H](C/C=C\CCCC(=O)O)[C@@H](O)C[C@H]1O` [PGF2α], the “transmission in motor pathways” value in assay [6] is on record as “facilitates transmission in motor pathways”. Moreover, the “effect in the female reproductive system (fertility, labor, abortion)” value in assay [5] is “contragestational effects; also recorded: induces spontaneous abortions in early pregnancy”.
For `COC(=O)CCCCCC[C@H]1C(=O)C=C[C@H]1/C=C/[C@@H](O)C1CC2(CCC2)C1` [TR-4126, Methyl 7-{5-oxo-2R-[3S-hydroxy-3-(spiro[3.3]hept-2-yl)-1E-propenyl]cyclopent-3-en-1R-yl}heptanoate], the “Test G Guinea Pig Trachea, Activity Value” in assay [7] is given as “Cl”. Further, the “Test E Cascade Assay, Aorta, Activity Value (ED50)” value (shortened to “Test E Cascade Assay, Aorta”) in assay [8] is 0 (>10000). The “Test E Cascade Assay, Stomach, Activity Value (ED50)” value (shortened to “Test E Cascade Assay, Stomach”) in assay [9] is reported as 0 (>10000). Further, in assay [10], the “Test D Activity Value (ED50 mmHg, decrease in blood pressure)” value is given as 0 (>10.0). Further, the “Test E Cascade Assay, Rectum, Activity Value (ED50)” value (“Test E Cascade Assay, Rectum” for short) in [11] is 0 (>10000).
On to `O=C1C[C@@H](O)[C@H](/C=C/[C@@H](O)C2CC3(CCC3)C2)[C@H]1CCCCCCCO` [TR-4714, 7-{3R-hydroxy-5-oxo-2R-[3S-hydroxy-3-(spiro[3.3]hept-2-yl)-1E-propenyl]cyclopent-1R-yl}heptan-1-ol], for which the “Test G Guinea Pig Trachea, Activity Value” in [7] was “Cl”. Further, the “Test E Cascade Assay, Colon, Activity Value (ED50)” value in [12] is 0 (>10000). Further, the “Test E Cascade Assay, Aorta” value in assay [8] is 0 (>10000). The “Test E Cascade Assay, Stomach” value in assay [9] is 0 (>10000). The EC50 in [13] was more than 10 µg/mL. Further, the “Test B Activity Value (% decrease in acidity, inhibition of gastric secretion)” value in [14] is on record as 0 (<26). Also, in assay [11], the “Test E Cascade Assay, Rectum” value is 0 (>10000).
With `COC(=O)CCCCCC[C@H]1C(=O)C[C@@H](O)[C@@H]1/C=C/[C@@H](O)C1(C)CC2(CCC2)C1` [TR-4845, Methyl 7-{3R-hydroxy-5-oxo-2R-[3R-hydroxy-3-(2-methylspiro[3.3]hept-2-yl)-1E-propenyl]cyclopent-1R-yl}heptanoate], the “inhibition of aggregation of human platelets, in words” value in assay [15] is reported as “inhibit aggregation of platelets”. Further, the “Test E Cascade Assay, Colon, Activity Value (ED50)” value in assay [12] is 0 (>10000). In addition, the “Test E Cascade Assay, Aorta” value in [8] was 0 (>10000). Besides, the “Test E Cascade Assay, Stomach” value in [9] is 0 (>10000). For the same compound, in assay [13], the EC50 is more than 10 µg/mL. In assay [14], the “Test B Activity Value (% decrease in acidity, inhibition of gastric secretion)” value is 3 (51-75). Besides, the “Test E Cascade Assay, Rectum” value in assay [11] was 0 (>10000).
